Measurements published in patent US6740680B1, “Pharmaceutical compositions to tetrac and methods of use thereof” (Becton Pharma, Inc., priority 1999, dated 2004).
Where two headings read alike, the source gives them in different places.

Tests used:
[1] = tested on: GH mRNA; experiment: Northern blot, growth hormone mRNA in pituitary; type: in vivo, rat; settings: infused rats, adjusted group mean at the mean Ln (TSH) concentration
Procedure: (§1) Seventy-nine male SIVZ rats were purchased from the breeder (Institut für Labortierkunde des Universität Zürich, Zürich, Switzerland). They were rendered hypothyroid by a single injection of [^131I]Na (100 μCi/rat) and before and throughout the experiment 0.02% 2-mercapto-1-methylimidazol (MMI) was added to drinking water. In order to have an euthyroid control group of similar weight and identical age, 10 rats received only MMI in the drinking water and 2 weeks before implanting the minipumps, MMI was withdrawn. Osmotic minipumps (secretion rate 0.25 μl/hour, duration 14 days) were implanted intraperitoneally (i.p.) 2 months after the injection of [^131I]Na. The minipumps were filled with T4 or Tetrac dissolved in 0.05 N NaOH, 2% BSA and 100,000 cpm [^125I]T4 or [^125I]Tetrac as control of their secretion rates. The infusion lasted 13 days. 0, 1.5, 4.5, 13.5 and 40.5 nmol Tetrac/day/100 g or 0.5, 1.5, 4.5 and 13.5 nmol T4/day/100 g bodyweight (BW) (n=4/dose) were infused. An euthyroid control group was included. The animals were weighed every 2 days. Rats were sacrificed by decapitation and blood was collected and stored at […] until use. Tissues (liver, heart, brown adipose tissue, cerebral cortex and pituitary) were removed rapidly, frozen in liquid nitrogen and stored at […] until use.
(§2) Total RNA extraction and Northern Blot hybridization Total RNA was extracted with the method of Chomczynski and Sacchi (Chomczynski, P. and Sacchi, N. Anal. Biochem. (1987) 162: 156-159). […]
(§3) The amount of labeled mRNA was quantified by scanning laser densitometry (Phosphorimager, Molecular Dynamics; Sunnyvale, USA). Variations in RNA loading and membrane transfer were corrected by densitometric quantification of a negative photograph of 28S and 18S ribosomal RNA bands from ethidium bromide stained RNA gels. […]

[2] = tested on: hypothyroid rats; experiment: Heart weight and heart/body weight in hypothyroid rats infused with Tetrac or T4; type: in vivo, rat; settings: hypothyroid rats, mean ± SEM; for Heart: continuous minipump infusion
Procedure: as §1

[3] = Serum T3, T4, Triac and Tetrac levels in infused rats; type: in vivo; settings: male, SIVZ, rat, intraperitoneal, mean ± SEM, read-out: Serum T4
Procedure: as §1
Hornone assays. Total serum T4, T3, Tetrac, Triac and TSH levels (intra-assay coefficient of variation 7 to 10%, inter-assay coefficient of variation 12 to 15%) were measured using the method of Burger, A., Sakoloff, C., Staeheli, V., Vallotton, M. D., and Ingbar, S. H. Acta. Endocrinol. (Copenh.) 80: 58-69 (1975). Serum TSH measurements were performed with reagents kindly provided by the National Pituitary Program, NIAMDD, NIH (Bethesda, USA). The detection limits were 0.80 ng TSH/ml; 9.5 pmol T4/ml; 0.16 pmol T3/ml; 10 pmol Tetrac/ml and 0.52 pmol Triac/ml.

[4] = tested on: β-MHC mRNA; experiment: Northern blot, β-MHC mRNA in heart; type: in vivo, rat; settings: infused rats, adjusted group mean at the mean Ln (TSH) concentration
Procedure: as §1, §2, §3

[5] = tested on: Monodeiodinase type 1; experiment: Monodeiodinase type 1 activity in liver and heart homogenates of infused rats; type: in vivo, rat; settings: Liver, infused rats, adjusted group mean at the mean Ln (TSH) concentration
Procedure: as §1
(§4) Monodeiodinase type 1 and 2 activities. Monodeiodinase type 1 and type 2 activities were determined in tissue homogenates by measuring the release of radioiodide from [^125I]rT3 according to the method of Leonard and Rosenberg (Leonard, J. L. et al. Endocrinology (1980) 106: 444-451).
(§5) Monodeiodinase type 1 activity was measured in liver homogenates using 1 μM rT3 and 1 mM DTT with 10 min of incubation, whereas for heart, 0.01 μM rT3 and 10 mM DTT with 1 hour of incubation. Monodeiodinase type 2 activity was measured in brown adipose tissue (BAT) and cerebral cortex using 1 nM rT3, 10 mM DTT and 1 mM propylthiouracil (PTU) with 1 hour of incubation. Protein concentrations were measured by the method of Bradford (Bio-Rad Laboratories GmbH, Munich, Germany) with bovine gammaglobulin as the protein standard. In order to study the effect of circulating Tetrac on the enzyme activities, 2 rats were injected intraperitoneally with 10 μCi ^125I Tetrac and killed 6 hours later. The tissue homogenates were extracted with 3 volumes of ethanol-NH3 (97:3). After 10 minutes centrifugation at 15,000 g, the supernatant was vacuum dried and applied to TLC (Merck 254, Toluol, acetic acid, water: 2:2:1). In order to calculate the tissue concentrations, the highest serum Tetrac levels were used (406 pmol/ml). The calculated tissue concentrations were: liver: 1.9, heart: 2.29 and brain cortex: 0.47 fluol Tetrac/μg protein.

[6] = tested on: monodeiodinase type 1 mRNA; experiment: Northern blot, hepatic monodeiodinase type 1 mRNA; type: in vivo, rat; settings: Liver, infused rats, adjusted group mean at the mean Ln (TSH) concentration
Procedure: as §1, §2, §3

[7] = tested on: TSH; experiment: Serum TSH in hypothyroid rats infused with Tetrac or T4; type: in vivo, rat; settings: for Serum TSH: hypothyroid rats, mean ± SEM
Procedure: Seventy-nine male SIVZ rats were purchased from the breeder (Institut für Labortierkunde des Universität Zürich, Zürich, Switzerland). […] The infusion lasted 13 days. […] An euthyroid control group was included. The animals were weighed every 2 days. Rats were sacrificed by decapitation and blood was collected and stored at […] until use. Tissues (liver, heart, brown adipose tissue, cerebral cortex and pituitary) were removed rapidly, frozen in liquid nitrogen and stored at […] until use.
Hornone assays. […] Endocrinol. […] Serum TSH measurements were performed with reagents kindly provided by the National Pituitary Program, NIAMDD, NIH (Bethesda, USA).

[8] = tested on: Monodeiodinase type 2; experiment: Monodeiodinase type 2 activity in brain cortex and brown adipose tissue of infused rats; type: in vivo, rat; settings: for Residual monodeiodinase type 2 activity, adjusted mean: infused rats, remaining activity, adjusted group mean at the mean Ln (TSH) concentration
Procedure: as §1, §4, §5

[9] = tested on: α-MHC mRNA; experiment: Northern blot, α-MHC mRNA in heart; type: in vivo, rat
Procedure: as §1, §2, §3

[10] = infusion 13.5 nmol/day/100 g BW

N[C@@H](Cc1cc(I)c(Oc2cc(I)c(O)c(I)c2)c(I)c1)C(=O)O [T4, L-thyroxine, reference compound]
GH mRNA, adjusted mean [1]: 28644 arbitrary units
Heart ([2]; 0.5 nmol/day/100 g BW): 0.86 ± 0.06 g
Heart ([2]; 1.5 nmol/day/100 g BW): 0.90 ± 0.04 g
Heart ([2]; 4.5 nmol/day/100 g BW): 1.19 ± 0.03 g
Heart ([2]; 13.5 nmol/day/100 g BW): 1.32 ± 0.11 g
Heart/BW (%) ([2]; infusion 0.5 nmol/day/100 g BW): 0.35 ± 0.02%
Heart/BW (%) ([2]; infusion 1.5 nmol/day/100 g BW): 0.34 ± 0.01%
Heart/BW (%) ([2]; infusion 4.5 nmol/day/100 g BW): 0.45 ± 0.02%
Heart/BW (%) [2, 10]: 0.54 ± 0.02%
concentration at 13 days ([3]; T4 infusion 0.5 nmol/day/100 g BW): 43.1 ± 2.8 nM
concentration at 13 days ([3]; T4 infusion 1.5 nmol/day/100 g BW): 77.1 ± 9.4 nM
concentration at 13 days ([3]; T4 infusion 4.5 nmol/day/100 g BW): 130 ± 9.5 nM
concentration at 13 days ([3]; T4 infusion 13.5 nmol/day/100 g BW): 353 ± 31.7 nM
β-MHC mRNA, adjusted mean [4]: 495 arbitrary units
Residual Monodeiodinase type 1 activity, adjusted mean [5]: 180
Residual Monodeiodinase type 1 mRNA, adjusted mean [6]: 5.1 arbitrary units
Serum TSH ([7]; infusion 0.5 nmol/day/100 g BW): 110.2 ± 10.8 ng/mL
Serum TSH ([7]; infusion 1.5 nmol/day/100 g BW): 11.8 ± 3.0 ng/mL
Serum TSH ([7]; infusion 4.5 nmol/day/100 g BW): 1.0 ± 0.2 ng/mL
Serum TSH [7, 10]: <0.8 ng/mL
Serum TSH concentration, mean of treatment group ([7]; mean over all dose levels of the treated rats, p=<0.04): 31 ng/mL
Residual monodeiodinase type 2 activity, T4/Tetrac (activity of T4 in % of Tetrac) ([8]; BAT): 42%
Residual monodeiodinase type 2 activity, adjusted mean ([8]; BAT): 11.8
Residual monodeiodinase type 2 activity, T4/Tetrac (activity of T4 in % of Tetrac) ([8]; Brain Cortex): 18%
Residual monodeiodinase type 2 activity, adjusted mean ([8]; Brain Cortex): 5.02
α-MHC mRNA, T4/Tetrac (activity of T4 in % of Tetrac) [9]: 21%
α-MHC mRNA, adjusted mean ([9]; infused rats, adjusted group mean at the mean Ln (TSH) concentration): 1.13 arbitrary units
